Entries after “also recorded” stand apart in the source; their conditions may differ. Where two headings read alike, the source gives them in different places.
How the values were obtained:
[1] = Pilot food effect on PK (moderate fat breakfast, Day 3 Cycle 1, Part A); type: in vivo, human
Description: Pilot food effect: A pilot food effect is assessed by PK sampling after drug administration with a moderate fat breakfast on Day 3 of Cycle 1 in all patients treated in Part A. All other dosing in Part A is taken in fasted condition. If results from the QD dosing regimen allow conclusions to be drawn, this will not be implemented for other dosing regimens (eg, BID) that are explored.
For the QD regimen, during Cycle 1, one dose is taken on Day 1 in fasting condition, no dose on Day 2 and repeated administration starts from Day 3. On Day 3 only, the dose is taken in fed condition for a food effect evaluation, and then all subsequent administrations are taken in fasted condition, and at approximately the same time each day (±3 hours). From the conclusions drawn with the initial QD dose regimen, patients treated with other dose regimens are allowed to take Compound (1) in fasted or fed condition. For the BID regimen, the 600 mg dose is split in two drug administrations: 300 mg taken two times a day 12 hours apart (i.e. 2×300 mg)±1 hour with or without food (with one dose only taken in the morning on Day 1, no dose on Day 2 and then repeated BID dosing from Day 3).
The food effect is assessed by comparing AUC0-24 and Cmax between Day 1/Cycle 1 and Day 3/Cycle 1 in Part A.

[2] = TED14856 Part A: plasma pharmacokinetics of compound (1); type: in vivo, human

For `O=C(O)c1ccc2c(c1)CCCC(c1ccc(Cl)cc1Cl)=C2c1ccc(O[C@H]2CCN(CCCF)C2)cc1` [compound (1), 6-(2,4-dichlorophenyl)-5-[4-[(3S)-1-(3-fluoropropyl)pyrrolidin-3-yl]oxyphenyl]-8,9-dihydro-7H-benzo[7]annulene-2-carboxylic acid], the Tmax ([1]; female, human, plasma, oral, overall across doses, read-out: delay of median tmax with food) was ~1 h, the “increase of exposure with food” value ([1]; overall across doses) was “about 45%” and the “food effect on exposure” value ([1]; regardless of dose level) was “did not result in a major effect on exposure; also recorded: minimal”. The “variability of exposure parameters (average CV)” value ([2]; after repeated administrations) was ~45%, the “total variability of exposure parameters (average CV)” value ([2]; after single dose administration) was > 60% and the Cmax ([2]; female, human, plasma, oral, 20 mg, single 20 mg, Cycle1 Day 1, fasted, N=3, read-out: Cmax (Mean ± SD)) was 187 ± 46.7 ng/mL. The Cmax ([2]; female, human, plasma, oral, 150 mg, single 150 mg, Cycle1 Day 1, fasted, N=3, read-out: Cmax (Mean ± SD)) was 1310 ± 1380 ng/mL, the Cmax ([2]; female, human, plasma, oral, 200 mg, single 200 mg, Cycle1 Day 1, fasted, N=4, read-out: Cmax (Mean ± SD)) was 1650 ± 1340 ng/mL and the Cmax ([2]; female, human, plasma, oral, 400 mg, single 400 mg, Cycle1 Day 1, fasted, N=3, read-out: Cmax (Mean ± SD)) was 4740 ± 2920 ng/mL. For the same molecule, the Tmax ([2]; female, human, plasma, oral, 20 to 600 mg once a day, fasting, Day 1 and Day 22 Cycle 1, read-out: median time to achieve maximum concentration (tmax)) was ~3 h, the clearance ([2]; female, human, plasma, oral, across the 20-600 mg range, read-out: mean apparent systemic clearance) was 233 to 250 mL/min and the Vd ([2]; female, human, plasma, oral, across the 20-600 mg range, read-out: mean apparent volume of distribution) was ~120 L. The half-life ([2]; female, human, plasma, oral, estimated over 48 hours after a single dose on Day 1, read-out: mean apparent terminal half-life) was ≥ 8 h, the AUC(0-t) ([2]; human, plasma, oral, 20 mg, repeated 20 mg once daily, Cycle1 Day 22, fasted, N=3, read-out: AUC0-24 (Geometric Mean)) was 1350 ng·h/mL and the AUC(0-t) ([2]; human, plasma, oral, 20 mg, repeated 20 mg once daily, Cycle1 Day 22, fasted, N=3, read-out: AUC0-24 (Mean ± SD)) was 1630 ± 1120 ng·h/mL. The Cmax ([2]; human, plasma, oral, 20 mg, repeated 20 mg once daily, Cycle1 Day 22, fasted, N=3, read-out: Cmax (Geometric Mean)) was 203 ng/mL, the Cmax ([2]; human, plasma, oral, 20 mg, repeated 20 mg once daily, Cycle1 Day 22, fasted, N=3, read-out: Cmax (Mean ± SD)) was 218 ± 95.3 ng/mL and the Tmax ([2]; human, plasma, oral, 20 mg, repeated 20 mg once daily, Cycle1 Day 22, fasted, N=3, read-out: tmax (median)) was 2.17 h. For the same molecule, the Vd/F ([2]; human, plasma, oral, 20 mg, single 20 mg, Cycle1 Day 1, fasted, N = 1, read-out: Vss/F (Geometric Mean)) was 81.9 L, the Vd/F ([2]; human, plasma, oral, 20 mg, single 20 mg, Cycle1 Day 1, fasted, N = 1, read-out: Vss/F (Mean ± SD)) was 81.9 L and the AUC(0-t) ([2]; human, plasma, oral, 20 mg, single 20 mg, Cycle1 Day 1, fasted, N=3, read-out: AUC0-24 (Geometric Mean)) was 924 ng·h/mL. For the same molecule, the Cmax ([2]; human, plasma, oral, 20 mg, single 20 mg, Cycle1 Day 1, fasted, N=3, read-out: Cmax (Geometric Mean)) was 183 ng/mL, the Tmax ([2]; human, plasma, oral, 20 mg, single 20 mg, Cycle1 Day 1, fasted, N=3, read-out: tmax (median)) was 1.52 h and the AUC(0-t) ([2]; human, plasma, oral, 150 mg, repeated 150 mg once daily, Cycle1 Day 22, fasted, N=2, read-out: AUC0-24 (Geometric Mean)) was 15000 ng·h/mL. The AUC(0-t) ([2]; human, plasma, oral, 150 mg, repeated 150 mg once daily, Cycle1 Day 22, fasted, N=2, read-out: AUC0-24 (Mean ± SD)) was 15900 ng·h/mL, the Cmax ([2]; human, plasma, oral, 150 mg, repeated 150 mg once daily, Cycle1 Day 22, fasted, N=2, read-out: Cmax (Geometric Mean)) was 2230 ng/mL and the Cmax ([2]; human, plasma, oral, 150 mg, repeated 150 mg once daily, Cycle1 Day 22, fasted, N=2, read-out: Cmax (Mean ± SD)) was 2390 ng/mL. For the same molecule, the Tmax ([2]; human, plasma, oral, 150 mg, repeated 150 mg once daily, Cycle1 Day 22, fasted, N=2, read-out: tmax (median)) was 2.97 h, the Vd/F ([2]; human, plasma, oral, 150 mg, single 150 mg, Cycle1 Day 1, fasted, N = 1, read-out: Vss/F (Geometric Mean)) was 61.5 L and the Vd/F ([2]; human, plasma, oral, 150 mg, single 150 mg, Cycle1 Day 1, fasted, N = 1, read-out: Vss/F (Mean ± SD)) was 61.5 L. For the same molecule, the AUC(0-t) ([2]; human, plasma, oral, 150 mg, single 150 mg, Cycle1 Day 1, fasted, N=3, read-out: AUC0-24 (Geometric Mean)) was 6860 ng·h/mL, the AUC(0-t) ([2]; human, plasma, oral, 150 mg, single 150 mg, Cycle1 Day 1, fasted, N=3, read-out: AUC0-24 (Mean ± SD)) was 9140 ± 8730 ng·h/mL and the Cmax ([2]; human, plasma, oral, 150 mg, single 150 mg, Cycle1 Day 1, fasted, N=3, read-out: Cmax (Geometric Mean)) was 884 ng/mL. The Tmax ([2]; human, plasma, oral, 150 mg, single 150 mg, Cycle1 Day 1, fasted, N=3, read-out: tmax (median)) was 3 h, the AUC(0-t) ([2]; human, plasma, oral, 200 mg, repeated 200 mg once daily, Cycle1 Day 22, fasted, N=3, read-out: AUC0-24 (Geometric Mean)) was 13400 ng·h/mL and the AUC(0-t) ([2]; human, plasma, oral, 200 mg, repeated 200 mg once daily, Cycle1 Day 22, fasted, N=3, read-out: AUC0-24 (Mean ± SD)) was 13900 ± 4380 ng·h/mL. It also gave a Cmax ([2]; human, plasma, oral, 200 mg, repeated 200 mg once daily, Cycle1 Day 22, fasted, N=3, read-out: Cmax (Geometric Mean)) of 2030 ng/mL, a Cmax ([2]; human, plasma, oral, 200 mg, repeated 200 mg once daily, Cycle1 Day 22, fasted, N=3, read-out: Cmax (Mean ± SD)) of 2150 ± 873 ng/mL and a Tmax ([2]; human, plasma, oral, 200 mg, repeated 200 mg once daily, Cycle1 Day 22, fasted, N=3, read-out: tmax (median)) of 2.07 h. For the same molecule, the AUC(0-t) ([2]; human, plasma, oral, 200 mg, single 200 mg, Cycle1 Day 1, fasted, N=4, read-out: AUC0-24 (Geometric Mean)) was 9760 ng·h/mL, the AUC(0-t) ([2]; human, plasma, oral, 200 mg, single 200 mg, Cycle1 Day 1, fasted, N=4, read-out: AUC0-24 (Mean ± SD)) was 13600 ± 13800 ng·h/mL and the Cmax ([2]; human, plasma, oral, 200 mg, single 200 mg, Cycle1 Day 1, fasted, N=4, read-out: Cmax (Geometric Mean)) was 1340 ng/mL. The Vd/F ([2]; human, plasma, oral, 200 mg, single 200 mg, Cycle1 Day 1, fasted, N=4, read-out: Vss/F (Geometric Mean)) was 173 L, the Vd/F ([2]; human, plasma, oral, 200 mg, single 200 mg, Cycle1 Day 1, fasted, N=4, read-out: Vss/F (Mean ± SD)) was 213 ± 127 L and the Tmax ([2]; human, plasma, oral, 200 mg, single 200 mg, Cycle1 Day 1, fasted, N=4, read-out: tmax (median)) was 2.98 h. It also gave an AUC(0-t) ([2]; human, plasma, oral, 400 mg, repeated 400 mg once daily, Cycle1 Day 22, fasted, N=3, read-out: AUC0-24 (Geometric Mean)) of 29500 ng·h/mL, an AUC(0-t) ([2]; human, plasma, oral, 400 mg, repeated 400 mg once daily, Cycle1 Day 22, fasted, N=3, read-out: AUC0-24 (Mean ± SD)) of 36800 ± 23500 ng·h/mL and a Cmax ([2]; human, plasma, oral, 400 mg, repeated 400 mg once daily, Cycle1 Day 22, fasted, N=3, read-out: Cmax (Geometric Mean)) of 3370 ng/mL. The Cmax ([2]; human, plasma, oral, 400 mg, repeated 400 mg once daily, Cycle1 Day 22, fasted, N=3, read-out: Cmax (Mean ± SD)) was 4020 ± 2460 ng/mL and the Tmax ([2]; human, plasma, oral, 400 mg, repeated 400 mg once daily, Cycle1 Day 22, fasted, N=3, read-out: tmax (median)) was 2.95 h.

Source: US20200352905A1, “6-(2,4-DICHLOROPHENYL)-5-[4-[(3S)-1-(3-FLUOROPROPYL)PYRROLIDIN-3-YL]OXYPHENYL]-8,9-DIHYDRO-7H-BENZO[7]ANNULENE-2-CARBOXYLIC ACID FOR USE IN METASTATIC OR ADVANCED BREAST CANCER PATIENTS” (SANOFI, priority 2019, published 2020)
